In ChEMBL document CHEMBL3112488, “Discovery of C-(1-aryl-cyclohexyl)-methylamines as selective, orally available inhibitors of dipeptidyl peptidase IV” (Bioorg Med Chem Lett, 2014):

What was measured:
Dipeptidyl peptidase 9 = Dipeptidyl peptidase 9 (Homo sapiens, UniProt Q86TI2); test: Inhibition of human recombinant DPP9
Rattus norvegicus [1] = species on record: Rattus norvegicus; test: animal or person; settings: Sprague-Dawley, Plasma, po, 8 h, read-out: INH
Rattus norvegicus [2] = species on record: Rattus norvegicus; test: animal or person; settings: Sprague-Dawley, Plasma, po, read-out: INH
[3] = Oral bioavailability in rat at 3 mg/kg administered in 10% PEG300/90% PBS; type: ADME, organism-based; settings: in vivo
[4] = Clearance in rat at 1 mg/kg, iv administered in 10% PEG300/90% PBS; type: ADME, organism-based; design: dose 1 mg/kg, route intravenous; settings: in vivo
[5] = Half life in rat at 1 mg/kg, iv administered in 10% PEG300/90% PBS; type: ADME, organism-based; design: dose 1 mg/kg, route intravenous; settings: in vivo
[6] = Volume of distribution at steady state in rat at 1 mg/kg, iv administered in 10% PEG300/90% PBS; type: ADME, organism-based; design: dose 1 mg/kg, route intravenous; settings: in vivo, read-out: Vdss
[7] = AUC (0 to 8 hrs) in rat at 3 mg/kg, po administered in 10% PEG300/90% PBS; type: ADME, organism-based; design: time < 8 hr, dose 3 mg/kg, route oral; settings: plasma
[8] = Cmax in rat at 3 mg/kg, po administered in 10% PEG300/90% PBS; type: ADME, organism-based; design: dose 3 mg/kg, route oral; settings: in vivo
[9] = Tmax in rat at 3 mg/kg, po administered in 10% PEG300/90% PBS; type: ADME, organism-based; design: dose 3 mg/kg, route oral; settings: in vivo
[10] = molecular target: Voltage-gated inwardly rectifying potassium channel KCNH2 (Homo sapiens, UniProt Q12809); test: Inhibition of human ERG by dofetilide binding assay
Chain of Voltage-gated inwardly rectifying potassium channel KCNH2 (Q12809 whole entry): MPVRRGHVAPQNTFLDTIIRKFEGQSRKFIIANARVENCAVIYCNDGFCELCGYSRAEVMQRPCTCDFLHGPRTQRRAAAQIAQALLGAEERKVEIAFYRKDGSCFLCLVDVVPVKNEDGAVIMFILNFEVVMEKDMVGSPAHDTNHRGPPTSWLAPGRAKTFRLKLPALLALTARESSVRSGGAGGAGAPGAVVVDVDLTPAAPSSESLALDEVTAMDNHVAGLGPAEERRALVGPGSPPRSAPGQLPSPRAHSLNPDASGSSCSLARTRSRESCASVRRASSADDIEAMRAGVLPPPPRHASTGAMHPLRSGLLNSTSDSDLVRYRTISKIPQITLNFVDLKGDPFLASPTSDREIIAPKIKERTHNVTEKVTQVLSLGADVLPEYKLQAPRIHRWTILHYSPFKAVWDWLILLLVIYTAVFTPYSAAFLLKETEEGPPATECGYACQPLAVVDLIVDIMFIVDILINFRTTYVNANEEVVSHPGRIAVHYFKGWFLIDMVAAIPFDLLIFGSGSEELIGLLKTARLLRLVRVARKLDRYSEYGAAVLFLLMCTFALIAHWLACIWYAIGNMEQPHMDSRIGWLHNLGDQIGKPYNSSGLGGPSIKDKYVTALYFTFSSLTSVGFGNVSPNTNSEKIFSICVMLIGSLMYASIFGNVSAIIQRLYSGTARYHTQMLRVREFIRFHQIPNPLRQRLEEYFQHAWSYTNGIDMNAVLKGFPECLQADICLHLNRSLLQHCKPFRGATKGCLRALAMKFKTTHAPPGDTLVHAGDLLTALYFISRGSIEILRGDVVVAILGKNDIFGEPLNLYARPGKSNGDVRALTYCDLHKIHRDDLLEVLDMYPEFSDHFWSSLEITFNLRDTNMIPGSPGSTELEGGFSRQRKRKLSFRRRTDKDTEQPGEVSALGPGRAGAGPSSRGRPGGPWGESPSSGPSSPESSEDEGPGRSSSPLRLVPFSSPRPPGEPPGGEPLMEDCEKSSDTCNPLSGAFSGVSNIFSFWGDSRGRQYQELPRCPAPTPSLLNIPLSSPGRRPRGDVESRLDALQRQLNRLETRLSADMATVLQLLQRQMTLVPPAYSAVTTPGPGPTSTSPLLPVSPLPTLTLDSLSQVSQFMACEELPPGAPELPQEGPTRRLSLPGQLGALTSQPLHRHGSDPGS

Cytochrome P450 2D6 = Cytochrome P450 2D6 (Homo sapiens, UniProt P10635); test: Inhibition of CYP2D6 (unknown origin); type: ADME
Chain of Cytochrome P450 2D6 (P10635 whole entry): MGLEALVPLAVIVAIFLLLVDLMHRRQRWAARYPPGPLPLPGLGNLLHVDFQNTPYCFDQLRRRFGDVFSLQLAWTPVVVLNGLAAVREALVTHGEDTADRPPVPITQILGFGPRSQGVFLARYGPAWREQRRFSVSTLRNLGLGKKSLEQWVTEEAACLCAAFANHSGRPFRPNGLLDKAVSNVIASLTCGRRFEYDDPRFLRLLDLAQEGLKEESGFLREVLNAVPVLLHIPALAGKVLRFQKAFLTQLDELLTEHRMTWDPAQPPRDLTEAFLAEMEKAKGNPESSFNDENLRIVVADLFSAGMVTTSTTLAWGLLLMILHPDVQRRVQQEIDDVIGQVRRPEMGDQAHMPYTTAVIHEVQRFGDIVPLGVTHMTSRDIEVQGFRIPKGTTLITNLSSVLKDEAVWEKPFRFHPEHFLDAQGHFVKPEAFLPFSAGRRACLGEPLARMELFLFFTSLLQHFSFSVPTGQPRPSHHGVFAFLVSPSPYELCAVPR

[11] = Intrinsic clearance in rat liver microsomes; type: ADME
[12] = Permeability from basolateral to apical side in human Caco2 cells; type: ADME, cell-based; settings: Caco-2, read-out: permeability
[13] = Permeability from apical to basolateral side in human Caco2 cells; type: ADME, cell-based; settings: Caco-2, read-out: permeability
Dipeptidyl peptidase 8 = Dipeptidyl peptidase 8 (Homo sapiens, UniProt Q6V1X1); test: Inhibition of human recombinant DPP8
Chain of Dipeptidyl peptidase 8 (Q6V1X1 whole entry): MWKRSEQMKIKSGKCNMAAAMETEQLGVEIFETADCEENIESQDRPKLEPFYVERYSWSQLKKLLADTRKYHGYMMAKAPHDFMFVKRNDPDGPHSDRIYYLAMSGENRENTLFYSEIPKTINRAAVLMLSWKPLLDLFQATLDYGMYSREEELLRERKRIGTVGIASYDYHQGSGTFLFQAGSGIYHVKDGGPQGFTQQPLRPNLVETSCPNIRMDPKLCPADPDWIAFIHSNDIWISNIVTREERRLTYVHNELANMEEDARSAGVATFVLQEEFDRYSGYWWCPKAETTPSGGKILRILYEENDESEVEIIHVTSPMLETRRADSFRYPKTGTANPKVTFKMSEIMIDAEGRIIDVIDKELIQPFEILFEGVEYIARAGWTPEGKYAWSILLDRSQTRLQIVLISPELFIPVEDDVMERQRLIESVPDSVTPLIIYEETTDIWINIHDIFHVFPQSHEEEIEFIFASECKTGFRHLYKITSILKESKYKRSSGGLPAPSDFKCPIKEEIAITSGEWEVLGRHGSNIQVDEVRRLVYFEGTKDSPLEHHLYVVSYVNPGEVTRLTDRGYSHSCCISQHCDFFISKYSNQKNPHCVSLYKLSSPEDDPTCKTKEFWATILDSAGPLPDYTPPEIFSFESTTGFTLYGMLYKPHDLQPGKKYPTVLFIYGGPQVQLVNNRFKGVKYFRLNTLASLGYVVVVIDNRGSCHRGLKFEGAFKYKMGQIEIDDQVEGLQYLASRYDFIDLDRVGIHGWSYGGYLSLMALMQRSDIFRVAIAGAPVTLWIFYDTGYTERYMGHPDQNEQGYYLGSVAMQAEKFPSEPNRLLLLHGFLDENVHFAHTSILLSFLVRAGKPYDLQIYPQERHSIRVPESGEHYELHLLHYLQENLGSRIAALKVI

Rattus norvegicus [14] = species on record: Rattus norvegicus; test: animal or person; settings: Sprague-Dawley, Plasma, po, 0.5 h, read-out: INH
[15] = Oral bioavailability in rat at 3 mg/kg administered in PBS buffer at pH 6.8; type: ADME, organism-based; settings: in vivo
[16] = Clearance in rat at 1 mg/kg, iv administered in PBS buffer at pH 6.8; type: ADME, organism-based; design: dose 1 mg/kg, route intravenous; settings: in vivo
[17] = Half life in rat at 1 mg/kg, iv administered in PBS buffer at pH 6.8; type: ADME, organism-based; design: dose 1 mg/kg, route intravenous; settings: in vivo
[18] = Volume of distribution at steady state in rat at 1 mg/kg, iv administered in PBS buffer at pH 6.8; type: ADME, organism-based; design: dose 1 mg/kg, route intravenous; settings: in vivo, read-out: Vdss
[19] = AUC (0 to 8 hrs) in rat at 3 mg/kg, po administered in PBS buffer at pH 6.8; type: ADME, organism-based; design: time < 8 hr, dose 3 mg/kg, route oral; settings: plasma
[20] = Cmax in rat at 3 mg/kg, po administered in PBS buffer at pH 6.8; type: ADME, organism-based; design: dose 3 mg/kg, route oral; settings: in vivo
[21] = Tmax in rat at 3 mg/kg, po administered in PBS buffer at pH 6.8; type: ADME, organism-based; design: dose 3 mg/kg, route oral; settings: in vivo
[22] = Oral bioavailability in rat at 3 mg/kg administered in sodium acetate buffer at pH 4.63; type: ADME, organism-based; settings: in vivo
[23] = Clearance in rat at 1 mg/kg, iv administered in sodium acetate buffer at pH 4.63; type: ADME, organism-based; design: dose 1 mg/kg, route intravenous; settings: in vivo
[24] = Half life in rat at 1 mg/kg, iv administered in sodium acetate buffer at pH 4.63; type: ADME, organism-based; design: dose 1 mg/kg, route intravenous; settings: in vivo
[25] = Volume of distribution at steady state in rat at 1 mg/kg, iv administered in sodium acetate buffer at pH 4.63; type: ADME, organism-based; design: dose 1 mg/kg, route intravenous; settings: in vivo, read-out: Vdss
[26] = AUC (0 to 8 hrs) in rat at 3 mg/kg, po administered in sodium acetate buffer at pH 4.63; type: ADME, organism-based; design: time < 8 hr, dose 3 mg/kg, route oral; settings: plasma
[27] = Cmax in rat at 3 mg/kg, po administered in sodium acetate buffer at pH 4.63; type: ADME, organism-based; design: dose 3 mg/kg, route oral; settings: in vivo
[28] = Tmax in rat at 3 mg/kg, po administered in sodium acetate buffer at pH 4.63; type: ADME, organism-based; design: dose 3 mg/kg, route oral; settings: in vivo

Chain of Dipeptidyl peptidase 9 (Q86TI2 whole entry): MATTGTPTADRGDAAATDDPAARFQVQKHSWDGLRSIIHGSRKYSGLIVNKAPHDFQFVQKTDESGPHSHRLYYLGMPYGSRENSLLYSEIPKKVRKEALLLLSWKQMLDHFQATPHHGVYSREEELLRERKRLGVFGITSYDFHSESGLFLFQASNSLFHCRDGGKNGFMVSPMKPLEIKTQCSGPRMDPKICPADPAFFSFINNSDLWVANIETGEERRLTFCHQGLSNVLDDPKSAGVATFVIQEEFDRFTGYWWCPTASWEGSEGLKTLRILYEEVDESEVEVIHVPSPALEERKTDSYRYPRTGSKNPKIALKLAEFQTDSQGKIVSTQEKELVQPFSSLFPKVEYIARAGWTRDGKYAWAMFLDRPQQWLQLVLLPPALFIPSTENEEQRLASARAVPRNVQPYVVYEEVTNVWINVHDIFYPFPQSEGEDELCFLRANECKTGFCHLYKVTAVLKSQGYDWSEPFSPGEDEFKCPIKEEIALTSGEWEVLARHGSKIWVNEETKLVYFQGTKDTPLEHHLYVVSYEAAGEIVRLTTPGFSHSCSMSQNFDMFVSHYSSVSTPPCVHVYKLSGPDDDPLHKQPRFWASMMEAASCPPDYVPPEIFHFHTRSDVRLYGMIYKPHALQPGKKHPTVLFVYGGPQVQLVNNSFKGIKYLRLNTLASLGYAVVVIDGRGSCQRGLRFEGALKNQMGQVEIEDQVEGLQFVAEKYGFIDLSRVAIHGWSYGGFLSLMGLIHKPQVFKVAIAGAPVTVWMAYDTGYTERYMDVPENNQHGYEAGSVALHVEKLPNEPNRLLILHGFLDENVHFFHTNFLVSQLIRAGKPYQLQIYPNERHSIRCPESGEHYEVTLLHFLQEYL

For `NC[C@]1(c2cccc(Cl)c2)CC[C@H](N2CCn3c(nnc3C(F)(F)F)C2)CC1`, the IC50 (Dipeptidyl peptidase 9) was 30 µM.
For `N[C@@H](CC(=O)N1CCn2c(nnc2C(F)(F)F)C1)Cc1cc(F)c(F)cc1F` [SITAGLIPTIN], the inhibition in vivo at 3 mg/kg (Rattus norvegicus [1]) was 30% and the inhibition in vivo at 3 mg/kg (Rattus norvegicus [2]) was 82%.
`NC[C@]1(c2cccc(Cl)c2)CC[C@H](n2nc(-c3cccnc3)ccc2=O)CC1` gave a bioavailability [3] of 92%, a clearance [4] of 29 mL/min/kg and a half-life [5] of 2.2 h. For the same molecule, the Vd [6] was 3.9 L/kg, the AUC(0-t) at 8 h [7] was 4.01 µM·h and the Cmax [8] was 921 nM. For the same molecule, the Tmax [9] was 1.8 h, the IC50 [10] was 4.4 µM and the IC50 (Cytochrome P450 2D6) was > 10 µM. The CLint [11] was 51.1 µL/min/mg, the Papp B→A [12] was 13 ×10⁻⁶ cm/s and the Papp A→B [13] was 8.6 ×10⁻⁶ cm/s. The IC50 (Dipeptidyl peptidase 9) was > 30 µM, the IC50 (Dipeptidyl peptidase 8) was > 30 µM and the inhibition in vivo at 3 mg/kg (Rattus norvegicus [14]) was 91%. The inhibition in vivo at 3 mg/kg (Rattus norvegicus [1]) was 80%.
With `Cc1ccc(=O)n([C@H]2CC[C@](CN)(c3cccc(Cl)c3)CC2)n1` the IC50 (Dipeptidyl peptidase 9) was > 30 µM.
In the case of `NC[C@]1(c2cccc(Cl)c2)CC[C@H](N2CCn3c(nnc3C(F)(F)F)C2=O)CC1`, the bioavailability [15] is reported as 17%, the clearance [16] is reported as 69 mL/min/kg and the half-life [17] is reported as 2.7 h. For the same molecule, the Vd [18] was 11.7 L/kg, the AUC(0-t) at 8 h [19] was 0.214 µM·h and the Cmax [20] was 57.8 nM. For the same molecule, the Tmax [21] was 3.3 h, the IC50 [10] was > 30 µM and the IC50 (Cytochrome P450 2D6) was 4.5 µM. The CLint [11] was 21.9 µL/min/mg, the Papp B→A [12] was 4.8 ×10⁻⁶ cm/s and the Papp A→B [13] was 1.6 ×10⁻⁶ cm/s.
In the case of `NC[C@]1(c2cccc(Cl)c2)CC[C@H](N2CCc3c(nc(C(F)(F)F)nc3C3CC3)C2)CC1`, the IC50 (Dipeptidyl peptidase 9) is reported as > 30 µM and the IC50 (Dipeptidyl peptidase 8) is reported as > 30 µM.
`NC[C@]1(c2cccc(Cl)c2)CC[C@H](N2CCc3c(nc(C(F)(F)F)nc3C3CC3)C2=O)CC1` showed a bioavailability [22] of 78%, a clearance [23] of 9.5 mL/min/kg and a half-life [24] of 2.3 h. The Vd [25] was 2.1 L/kg, the AUC(0-t) at 8 h [26] was 7.91 µM·h and the Cmax [27] was 1900 nM. For the same molecule, the Tmax [28] was 3.3 h, the IC50 [10] was 0.26 µM and the IC50 (Cytochrome P450 2D6) was 10 µM. It also gave a CLint [11] of 43.4 µL/min/mg, a Papp B→A [12] of 11 ×10⁻⁶ cm/s and a Papp A→B [13] of 4.4 ×10⁻⁶ cm/s.
